Experiment [1] has as its target T1, TDO (Homo sapiens (Human), UniProt P48775). The experiment can be described thus: A172 kynurenine cell-based assay. The following applies: A172 human glioblastoma cells, 500 μM L-tryptophan, 48 hours. As to the method:
(§1) Exemplary compounds of the invention were prepared, and tested to determine their effect as TDO and/or IDO inhibitors. Two different assays were employed: 1. a cell-based assay for detecting the effect of test compounds on kynurenine production in two different cancer cell types. This assay utilised cancer cells which expressed either TDO or IDO and as such was used as a means of testing compound activity at these two enzymes in a cell-based context. 2. a TDO and IDO biochemical coupled assay which utilised recombinantly produced and purified TDO and IDO enzymes in combination with the enzyme formamidase. This coupled enzyme system allowed conversion of N-formylkynurenine produced by TDO or IDO activity to kynurenine which was then quantified by fluorescence following addition of Erhlich's Reagent The protocols for these are set out below.
(§2) Cell Based Assay for Detection of Kynurenine Produced by TDO and/or IDO
(§3) A172 (human glioblastoma) and SKOV3 (human ovarian adenocarcinoma) cells were seeded in a 96 well plate at 30,000 or 40,000 cells per well respectively in phenol red-free RPMI supplemented with 10% FCS, 2 mM L-glutamine and 500 μM L-tryptophan. IDO expression was induced in the SKOV3 cells by the addition of 500 ng/ml IFN-γ. Cells were incubated at 37° C. with or without the addition of test compound. After 48 hours, the cells were removed by centrifugation and Erhlich's reagent was added to the supernatant. The Erhlich's reagent was incubated for 5 minutes before the absorbance was read at 490 nm.

Experiment [2] has as its target T2, IDO (Homo sapiens (Human), UniProt P14902). The experiment can be described thus: SKOV3 kynurenine cell-based assay (IDO induced by IFN-γ). The following applies: SKOV3 human ovarian adenocarcinoma cells, 500 ng/ml IFN-γ, 500 μM L-tryptophan, 48 hours. As to the method:
as §1, §2, §3

Experiment [3] deals with T1, TDO. Nature of the experiment: hTDO biochemical coupled assay. The following applies: 330 μM L-tryptophan, 17 minutes at room temperature. As to the method: as §1
(§4) TDO and IDO Biochemical Coupled Assay
(§5) Recombinant human IDO or TDO was incubated in 50 mM KPO4 (pH 7.0), 0.5 mM EGTA, 0.5 mM EDTA, 0.05% Triton™ X100, 20 mM ascorbate, 10 μM methylene blue, 500 U/ml catalase, 50 μg/ml KynB (kynurenine formamidase). TDO assays were carried out in the presence of 330 μM L-tryptophan, while IDO assays had the addition of 45 μM L-tryptophan. After incubation for 17 minutes at room temperature the reactions were stopped by the addition of Erhlich's reagent and incubated at room temperature for 5 minutes before the fluorescence was read (Ex 475, Em530).

For experiment [4], the target named is T2, IDO. The experiment can be described thus: hIDO biochemical coupled assay. To be noted: 45 μM L-tryptophan, 17 minutes at room temperature. How it is done:
as §1, §4, §5

Experiment [5] has as its target T3, IDO1 (Homo sapiens (Human), UniProt P14902). The experiment can be described thus: IDO1 HEK293 Cellular Assay. The class given is cell-based. The following applies: HEK293 cells transfected with Flag-IDO1, 200 μM L-Tryptophan, 20-24 hours; for IC50: read-out: HEK293 cell, pIC50 (converted). How it is done:
IDO1 HEK293 Cellular Assay
Compounds to be tested were serially diluted in ten 3-fold steps in DMSO starting from 10 mM DMSO stocks. Compound dilutions or DMSO alone were then dispensed from the dilution plate into a Greiner black 384-well assay plate (catalog #781086) using an Echo 550 acoustic liquid handler (Labcyte).
HEK293 cell pellets were resuspended to 5×10^5 cells/mL in complete HEK293 culture media (89% DMEM, 10% FBS, 1% penicilllin/streptomycin). Suspended cells (2 mL) were dispensed into each well of a 6-well Corning plate (Catalog#3516). Cells were allowed to attach and were incubated for 20 hours at 37 degrees Celsius in a 5% CO2 incubator. Flag-IDO1 vector (Genscript True ORF Gold, 2 ug) in 150 uL of Opti-MEM medium was added to each well of a Corning 24 well plate (Cat#3527) and incubated for 5 minutes at room temperature. To each well of the 24-well plate was added 150 μL Lipofectamine 2000 (Gibco) and the plate incubated at room temperature for 20-30 minutes. To each well of attached cells in the 6-well plate, 250 μL of the transfection mix from the 24well plate was gently added to each well and IDO1 protein was allowed to express for 24-30 hours at 37 degrees Celsius in a 5% CO2 incubator.
Media was removed from the cells which were then washed with 2 mL Dulbecco's phosphate-buffered saline (DPBS). After removal of DPBS, 0.5 mL of TrypLE (Gibco) was added and incubated at 5 minutes until cells lift from the surface of the wells. Complete HEK293 culture media (4 mL) was added to each well and cells were collected and pooled into a conical tube. Cells were pelleted at 200×g for 5 minutes and resuspended in an equal volume of complete DMEM medium. Cells were diluted to 4×10^5 cells per mL in complete HEK293 media. L-Tryptophan was added to added to give a final concentraiton of 200 μM. The diluted transfected cells (50 μL) or nontransfected cells (50 μL) were dispensed into wells of Greiner black 384-well assay plates (catalog #781086) containing previously diluted compounds. The plate is briefly mixed and centrifuged at 200×g for 10 seconds to collect cells at the bottom of the plate. Plates were covered and incubated for 20-24 hours at 37 degrees C. in a 5% CO2 incubator. Afterwards 10 μL of 0.5 M methyl isonipecotate in dimethyl sulfoxide was added to each well, mixed, sealed, and centrifuged at 500 rpm for 10 seconds. Plates were incubated at 37 degrees in a 5% CO2 incubator overnight to develop fluoresence. The plates are allowed to cool and then centrifuged for 1 minute at 1000×g. The resulting fluoresence was measured in an Envision plate reader (Perkin Elmer) with a 400/25 nm excitation filter and an 510/20 nm emission filter.
The fluoresence intensity of each well was corrected for the background observed in wells with untransfected cells and was expressed as a fraction of the intensity observed in wells of IDO1 transfected cells and DMSO only. Potencies were calculated by linear least squares fit to the four parameter logistic IC50 equation.

Experiment [6] addresses T3, IDO1. The experiment can be described thus: IDO1 Enzyme Assay. In kind it is biochemical. The following applies: HIS-tagged recombinant IDO1, tryptophan substrate, fluorescence readout; for IC50: read-out: IDO1 Enzyme, pIC50 (converted). How it is done: Compounds to be tested were serially diluted in ten 3-fold steps in DMSO starting from 10 mM DMSO stocks. Compound dilutions or DMSO alone were then dispensed from the dilution plate into a Greiner black 384-well assay plate (catalog #781086) using an Echo 555 acoustic liquid handler (Labcyte).
HIS-tagged IDO1 protein was recombinantly expressed in Escherichia coli using ZYP5052 autoinduction media supplemented with 500 μM delta aminolevulinic acid for 48 hours at 16 degrees Celsius. IDO1 protein was purified using Ni^2+-affinity resin and size exclusion chromatography. Purified protein was then diluted in assay buffer (50 mM Tris pH 7.0, 1% glycerol, 20 uM methylene blue, 0.05% Tween-20, 20 mM sodium ascorbate, 100 units/mL catalase to obtain a final IDOL concentration of 40 nM. IDOL solution ([…]) or buffer alone ([…]) were dispensed to wells of the assay plate using a BioRAPTR liquid dispenser (Beckman Coulter). Assay plates containing compound and IDO1 enzyme were incubated at room temperature for 30 minutes. Afterwards, 10 μL of 400 μM tryptophan in assay buffer were added to each well of the assay plate using a BioRAPTR liquid dispenser. Plates were incubated at room temperature for 60 minutes and reactions were quenched by addition of 10 μL of 0.5 M methyl isonipecotate in dimethyl sulfoxide. Plates were sealed and incubated at 37 degrees Celsius for 4 hours or 50 degrees Celsius for 2 hours. The plates are allowed to cool and then centrifuged for 1 minute at 1000×g. The resulting fluoresence was measured in an Envision plate reader (Perkin Elmer) with a 400/25 nm excitation filter and an 510/20 nm emission filter.
Potencies were calculated by linear least squares fit to the four parameter logistic IC50 equation.

T3 sequence (P14902 whole entry): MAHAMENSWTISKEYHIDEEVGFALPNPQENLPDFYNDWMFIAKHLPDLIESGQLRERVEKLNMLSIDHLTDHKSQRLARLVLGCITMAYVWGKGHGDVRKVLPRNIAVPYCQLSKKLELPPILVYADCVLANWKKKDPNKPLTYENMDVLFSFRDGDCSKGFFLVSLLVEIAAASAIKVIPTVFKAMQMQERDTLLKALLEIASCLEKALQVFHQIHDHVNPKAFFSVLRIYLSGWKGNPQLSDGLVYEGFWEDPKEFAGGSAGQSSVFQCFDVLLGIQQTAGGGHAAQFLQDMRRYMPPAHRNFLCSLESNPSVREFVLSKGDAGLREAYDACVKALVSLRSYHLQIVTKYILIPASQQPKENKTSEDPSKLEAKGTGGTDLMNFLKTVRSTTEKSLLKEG
T2 sequence (P14902 whole entry): as above
T1 sequence (P48775 whole entry): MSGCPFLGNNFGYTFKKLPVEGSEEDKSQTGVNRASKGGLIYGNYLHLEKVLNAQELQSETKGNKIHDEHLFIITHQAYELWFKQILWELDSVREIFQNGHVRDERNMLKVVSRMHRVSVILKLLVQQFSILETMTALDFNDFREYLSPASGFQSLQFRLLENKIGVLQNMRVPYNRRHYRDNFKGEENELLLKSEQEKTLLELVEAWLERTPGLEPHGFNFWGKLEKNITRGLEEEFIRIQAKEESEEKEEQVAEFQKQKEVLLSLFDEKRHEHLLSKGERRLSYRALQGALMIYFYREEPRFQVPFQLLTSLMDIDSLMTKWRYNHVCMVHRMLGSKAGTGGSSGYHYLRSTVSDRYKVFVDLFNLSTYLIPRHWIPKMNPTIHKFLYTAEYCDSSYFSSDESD

With `CC(=O)N1CCN(c2cc(C(F)(F)F)cc3cncn23)CC1` [Compound 1018], the “A172 Kynurenine cell based assay, pIC50” value in experiment [1] is reported as “++ (++ = pIC50 4.50-5.49)”. Moreover, in experiment [2], the “SKOV3 Kynurenine cell based assay, pIC50” value is “+ (+ = pIC50 4.00-4.49)”. Further, the “hTDO biochemical assay, pIC50” value in experiment [3] is “++ (++ = pIC50 4.50-5.49)”. The “hIDO biochemical assay, pIC50” value in experiment [4] is “++ (++ = pIC50 4.50-5.49)”.

For the compound `CS(=O)(=O)N1CCN(c2cc(C(F)(F)F)cc3cncn23)CC1` [Compound 1019], the “A172 Kynurenine cell based assay, pIC50” value in experiment [1] is given as “++ (++ = pIC50 4.50-5.49)”. Also, the “SKOV3 Kynurenine cell based assay, pIC50” value in experiment [2] was “+ (+ = pIC50 4.00-4.49)”. Further, in experiment [3], the “hTDO biochemical assay, pIC50” value was “++ (++ = pIC50 4.50-5.49)”. The “hIDO biochemical assay, pIC50” value in experiment [4] was “++ (++ = pIC50 4.50-5.49)”.

`O=C(O)N1CCC(c2cc(C(F)(F)F)cc3cncn23)CC1` [Compound 1020]: the “A172 Kynurenine cell based assay, pIC50” value in experiment [1] is “+ (+ = pIC50 4.00-4.49)”. Moreover, in experiment [2], the “SKOV3 Kynurenine cell based assay, pIC50” value was “+/− (+/− = pIC50 <4.00)”. Besides, the “hTDO biochemical assay, pIC50” value in experiment [3] is recorded as “++ (++ = pIC50 4.50-5.49)”. Also, the “hIDO biochemical assay, pIC50” value in experiment [4] was “+ (+ = pIC50 4.00-4.49)”.

Consider `CC1(C)CN(c2cc(Br)cc3cncn23)CCN1S(C)(=O)=O` [Compound 1021], for which the “A172 Kynurenine cell based assay, pIC50” value in experiment [1] is on record as “+++ (+++ = pIC50 ≥5.50)”. In addition, the “SKOV3 Kynurenine cell based assay, pIC50” value in experiment [2] is given as “+++ (+++ = pIC50 ≥5.50)”. Further, in experiment [5], the “HEK293 cell, pIC50” value was determined as 6.7. The “IDO1 Enzyme, pIC50” value in experiment [6] was 6.8.

Regarding `CN1C(=O)N(C2CCN(c3cc(C(F)(F)F)cc4cncn34)CC2)C(=O)C1(C)C` [Compound 1034], the “A172 Kynurenine cell based assay, pIC50” value in experiment [1] is reported as “++ (++ = pIC50 4.50-5.49)”. Also, the “SKOV3 Kynurenine cell based assay, pIC50” value in experiment [2] is listed as “++ (++ = pIC50 4.50-5.49)”. In addition, the “hTDO biochemical assay, pIC50” value in experiment [3] is listed as “++ (++ = pIC50 4.50-5.49)”. Also, the “hIDO biochemical assay, pIC50” value in experiment [4] is “++ (++ = pIC50 4.50-5.49)”.

Take `Cc1noc(C2CCN(c3cc(C(F)(F)F)cc4cncn34)CC2)c1C(N)=O` [Compound 1035, 3-methyl-5-{1-[7-(trifluoromethyl)imidazo[1,5-a]pyridin-5-yl]piperidin-4-yl}isoxazole-4-carboxamide]: the results for the IC50 in experiment [5] and in experiment [6] were 501 nM and 251 nM, respectively.

In the case of `CNC(=O)c1c(C)noc1C1CCN(c2cc(C(F)(F)F)cc3cncn23)CC1` [Compound 1036, N,3-dimethyl-5-{1-[7-(trifluoromethyl)imidazo[1,5-a]pyridin-5-yl]piperidin-4-yl}isoxazole-4-carboxamide], the IC50 in experiment [5] is 2510 nM; in experiment [6], 398 nM.

For `Cn1c(N)c(N2CCN(c3cc(C(F)(F)F)cc4cncn34)CC2)c(=O)n(C)c1=O` [Compound 1037, 6-amino-1,3-dimethyl-5-{4-[7-(trifluoromethyl)imidazo[1,5-a]pyridin-5-yl]piperazin-1-yl}pyrimidine-2,4(1H,3H)-dione], the figures for the IC50 in experiment [5] and in experiment [6] were 3980 nM and 794 nM, respectively.

`FC(F)(F)c1cc(N2CCC(n3cnnn3)CC2)n2cncc2c1` [Compound 1038, 5-[4-(1H-tetrazol-1-yl)piperidin-1-yl]-7-(trifluoromethyl)imidazo[1,5-a]pyridine]: the IC50 in experiment [5] was 794 nM; in experiment [6], 1000 nM.

The values are drawn from patent US10501458B2, “Substituted bicyclic fused ring compounds as indoleamine-2,3-dioxygenase inhibitors” (Merck Sharp & Dohme Corp., priority 2015, dated 2019).
